Data: patent US9963480B2, “Nucleoside phosphoramidate compound and use thereof” (priority 2013, dated 2018)

Tests used:
Type in all cases: cell-based
HCV 1b replicon = test: Antiviral activity assay in HCV replicon system (Huh7 1b cells, luciferase reporter); details: Hepatitis C virus, Huh-7; Huh7 1b cells with HCV 1b replicon, Bright-Glo luciferase, 72 h; read-out: EC50
From the text: The cell line Huh7 1b, which was provided by WuXi AppTec Co., Ltd. in Shanghai, contained an HCV 1b replicon with a stable Luciferase (Luc) reporter. It was constructed by cloning HCV nonstructural protein gene, neo (G418 resistance) and luciferase reporter gene into the pBR vector through gene recombination technology. Then the vector carrying the HCV replicon was transfected into Huh7 cells, and the transfected Huh7 cells were screened by G418 resistance. The HCV replicon was stably replicated, and the related protein and luciferase were stably expressed in Huh7 cells. The cells model was used for in-vitro screen of anti-HCV compounds. The anti-HCV activity of the compounds was measured by detecting the level of luciferase expression. See Lohmann V, et al. 1999. Replication of subgenomic hepatitis C virus RNAs in a hepatoma cell line. Science. 285(5424):110-113.
The control drug used in this experimental example was the compound of Example 25 in WO 2008/121634 (PCT/US2008/058183), i.e. (S)-2-{[(2R,3R,4R,5R)-5-(2,4-dioxo-3,4-dihydro-2H-pyrimidin-1-yl)-4-fluoro-3-hydr oxy-4-methyl-tetrahydro-furan-2-ylmethoxy]-phenoxy-phosphorylamino}-propanoic acid isopropyl ester. This compound was prepared according to the method described in J. Org. chem, 2011, 76, 8311-8319, and identified by H-NMR and mass spectrometry.
• 2.1 compound preparation: adding each of the compounds listed in Table 2 to 96-well plates using a POD™ 810 Automation Platform (LabCyte Corporation, USA), with 10 μM of each of the compounds as a starting concentration and in duplicate; serially diluting each of the compounds in 3-fold fashion and formulating 10 concentrations, with the final concentration of DMSO being 0.5%; • 2.2 cells preparation: seeding the Huh71b cells into 96-well plates respectively with a volume of 125 μl and 8×10^3 cells/well, and incubating in a 37° C., 5% CO2 incubator for 72 h; • 2.3 detection of cell activity: adding 30 μl per cell of the CellTiter-Fluor™ Reagent, incubating in a 37° C., 5% CO2 incubator for 1 h, measuring the fluorescence signal values with a fluorometer, and using the obtained data for calculation of cytotoxicities of the compounds; • 2.4 Bright-Glo detection: adding 100 μl per well of the Bright-Glo™ Luciferase Substrate, using a chemiluminescence detection system EnVision™ (PerkinElmer, USA) to detect the fluorescence signal values within 5 minutes, and using the obtained data for calculation of potencies of the compounds. • 2.5 data processing: converting the obtained data to a percentage of cell viability (Viability %) using the following formula:
[formula] • CPD: fluorescence signal value of the well added with the compound • ZPE (Zero percent effect): fluorescence signal value of the control well with zero percent effect. • Processing the raw data to calculate a percentage of inhibition (Inhibition %) using the following formula:
[formula] • CPD: fluorescence signal value of the well added with the compound; • HPE (Hundred percent effect): fluorescence signal value of the control well with hundred percent effect; • ZPE (Zero percent effect): fluorescence signal value of the control well with zero percent effect.
The inhibition percentage was processed by the GraphPad Prism software to obtain the corresponding curves and EC50 values.

[1] = test system: J399EM (HCV genotype 2a) virus; test: Antiviral activity assay in the cell-culture-derived infectious HCV (HCVcc) system; details: in vitro HCVcc system
Description: The compound according to the above example 1 was used in this experiment. The compound was formulated into a 10 mM mother liquid with DMSO, diluted to 500 nM by DMEM complete culture medium containing 0.5% of DMSO, followed by 4-fold dilution successively, and six concentrations were obtained. The positive control was diluted to 10 μM by DMEM complete culture medium containing 0.5% of DMSO, followed by 4-fold successively, and six concentrations were obtained.
(§1) Huh 7.5.1 cells, provided by Shanghai Institute of Materia Medica, Chinese Academy of Sciences.
J399EM (HCV genotype 2a) virus, i.e. a full length HCV mutant strain transfected with EGFP (enhanced green fluorescent protein) was used, which had the same infection capacity as the wild type JFH-1. The NS5A-EGFP fusion protein fluorescence was observed directly in infected cells by inserting EGFP coding sequence in the NS5A region. J399EM was provided by Shanghai Institute of Materia Medica, Chinese Academy of Sciences.
(§2) • 1) Huh 7.5.1 cells preparation: collecting the Huh7.5.1 cells in logarithmic phase, resuspending in DMEM complete culture medium, seeding into 96-well plates (7×10^3 cells/well), and incubating in a 37° C., 5% CO2 incubator for 24 h; • 2) virus infection: resuspending J399EM viruses in DMEM complete culture medium, adding the virus supernatant (MOI≈0.1) to the above 96-well plates, and washing with PBS after 8 hours of infection; • 3) drug treatment: adding various concentrations of the compounds to the Huh7.5.1 cells infected by J399EM viruses, with each concentration in duplicate; setting the control group with zero percent effect (ZPE) and the control group with hundred percent effect (HPE); replacing the compound with the DMEM complete culture medium containing 0.5% DMSO in ZPE group, and using the cells not infected with viruses in HPE group. • 4) cells incubation: incubating the 96-well plates in a 37° C., 5% CO2 incubator for 72 hr; • 5) anti-HCV activity detection: reading the relative fluorescence units (RFU) of each well by EnVision® Multi label Plate readers after incubation, and calculating the anti-HCV activity of the compounds using the obtained data according to the following formula: Inhibition %=(RFUZPE−RFUCPD)/(RFUZPE−RFUHPE)×100 • wherein RFUZPE represents the relative fluorescence units of the control group with zero percent effect and RFUCPD represents the relative fluorescence units of the corresponding compound group, and RFUHPE represents the relative fluorescence units of the control group with hundred percent effect. • 6) Cell viability detection: adding MTT solution to each well, incubating in a 37° C., 5% CO2 incubator for 4 hr, followed by addition of MTT dissolving solution, reading optical density (OD) of each well at 570 nm by the Multi label Plate readers after 6 hr, calculating the cytotoxicity of the compounds using the obtained data according to the following formula: Viability %=ODCPD/ODZPE×100 • wherein ODZPE represents the optical density of the control group with zero percent effect, and ODCPD represents the optical density of the corresponding compound; • 7) Data processing: processing the Inhibition %, Viability % by GraphPad Prism Software respectively, and obtaining the half maximal effective concentration (EC50) values and half maximal cytotoxic concentration (CC50) values of the compounds against the HVCcc GT2a viruses.

Huh 7.5.1 cells = test: Cell viability detection (MTT) in the HCVcc system; details: in vitro HCVcc system
Description: as §1, §2

## CC(C)OC(=O)[C@H](C)NP(=O)(OC[C@H]1O[C@@H](n2ccc(=O)[nH]c2=O)[C@](C)(F)[C@@H]1O)Oc1ccc(-c2csnn2)cc1 (stereo partly shown) [Example 12]
HCV 1b replicon
  EC50: 637 nM
[1]
  half maximal effective concentration (EC50) against the HCVcc GT2a viruses, in words: low
Huh 7.5.1 cells
  half maximal cytotoxic concentration (CC50), in words: high

## CC(C)OC(=O)[C@H](C)NP(=O)(OC[C@H]1O[C@@H](n2ccc(=O)[nH]c2=O)[C@](C)(F)[C@@H]1O)Oc1ccc(-c2ccc(F)cc2)cc1 (stereo partly shown) [Example 5]
HCV 1b replicon
  EC50: 61 nM
[1]
  half maximal effective concentration (EC50) against the HCVcc GT2a viruses, in words: low
Huh 7.5.1 cells
  half maximal cytotoxic concentration (CC50), in words: high

## CC(C)OC(=O)[C@H](C)NP(=O)(OC[C@H]1O[C@@H](n2ccc(=O)[nH]c2=O)[C@](C)(F)[C@@H]1O)Oc1ccc(-c2ccc(C#N)cc2)cc1 (stereo partly shown) [Example 18]
HCV 1b replicon
  EC50: 314 nM
[1]
  half maximal effective concentration (EC50) against the HCVcc GT2a viruses, in words: low
Huh 7.5.1 cells
  half maximal cytotoxic concentration (CC50), in words: high

## CC(C)OC(=O)[C@H](C)NP(=O)(OC[C@H]1O[C@@H](n2ccc(=O)[nH]c2=O)[C@](C)(F)[C@@H]1O)Oc1ccc(-c2nccs2)cc1 (stereo partly shown) [Example 16]
HCV 1b replicon
  EC50: 3870 nM
[1]
  half maximal effective concentration (EC50) against the HCVcc GT2a viruses, in words: low
Huh 7.5.1 cells
  half maximal cytotoxic concentration (CC50), in words: high

## CC(C)OC(=O)[C@H](C)NP(=O)(OC[C@H]1O[C@@H](n2ccc(=O)[nH]c2=O)[C@](C)(F)[C@@H]1O)Oc1cccc(-c2ccccc2)c1 (stereo partly drawn) [Example 2, (2S)-2-((([1,1′-biphenyl]-3-yloxy)(((2R,3R,4R,5R)-5-(2,4-dioxo-3,4-dihydropyrimidin-1(2H)-yl)-4-fluoro-3-hydroxy-4-methyltetrahydrofuran-2-yl)methoxy)phosphoryl)amino)propanoic Acid Isopropyl Ester]
HCV 1b replicon
  EC50: 105 nM
[1]
  half maximal effective concentration (EC50) against the HCVcc GT2a viruses, in words: low
Huh 7.5.1 cells
  half maximal cytotoxic concentration (CC50), in words: high

## CC(C)OC(=O)[C@H](C)NP(=O)(OC[C@H]1O[C@@H](n2ccc(=O)[nH]c2=O)[C@](C)(F)[C@@H]1O)Oc1ccc(-c2cscn2)cc1 (stereo partly drawn) [Example 38, (2S)-2-(((4-(thiazol-4-yl)phenyloxy)(((2R,3R,4R,5R)-5-(2,4-dioxo-3,4-dihydropyrimidin-1(2H)-yl)-4-fluoro-3-hydroxy-4-methyltetrahydrofuran-2-yl)methoxy)phosphoryl)amino)propanoic Acid Isopropyl Ester]
HCV 1b replicon
  EC50: 100 nM
[1]
  half maximal effective concentration (EC50) against the HCVcc GT2a viruses, in words: low
Huh 7.5.1 cells
  half maximal cytotoxic concentration (CC50), in words: high

## Cc1ccc(-c2ccc(OP(=O)(N[C@@H](C)C(=O)OC(C)C)OC[C@H]3O[C@@H](n4ccc(=O)[nH]c4=O)[C@](C)(F)[C@@H]3O)cc2)cc1 (stereo partly drawn) [Example 42, (2S)-2-((((4′-methyl-[1,1′-biphenyl]-4-yl)oxy)(((2R,3R,4R,5R)-5-(2,4-dioxo-3,4-dihydropyrimidin-1(2H)-yl)-4-fluoro-3-hydroxy-4-methyltetrahydrofuran-2-yl)methoxy)phosphoryl)amino)propanoic Acid Isopropyl Ester]
HCV 1b replicon
  EC50: 126 nM

## CC(C)OC(=O)[C@H](C)NP(=O)(OC[C@H]1O[C@@H](n2ccc(=O)[nH]c2=O)[C@](C)(F)[C@@H]1O)Oc1ccc(C#Cc2ccccc2)cc1 (stereo partly shown) [Example 11]
HCV 1b replicon
  EC50: 189 nM

## CC(C)OC(=O)[C@H](C)NP(=O)(OC[C@H]1O[C@@H](n2ccc(=O)[nH]c2=O)[C@](C)(F)[C@@H]1O)Oc1ccc2oc(-c3ccccc3)cc(=O)c2c1 (stereo partly shown) [Example 23]
HCV 1b replicon
  EC50: 4490 nM

## COc1ccc(-c2ccc(OP(=O)(N[C@@H](C)C(=O)OC(C)C)OC[C@H]3O[C@@H](n4ccc(=O)[nH]c4=O)[C@](C)(F)[C@@H]3O)cc2)cc1 (stereo partly shown) [Example 36]
HCV 1b replicon
  EC50: 73 nM
